# Laboratory results published in patent publication US20260102383A1, “LPAR1 Inhibitors” (AbbVie Inc., priority 2024, published 2026).
# Molecular target: T1, human LPAR1 (Homo sapiens, UniProt Q92633)
# T1 construct: host or cells: TangoEDG2-bla U2OS cells
# Test: Arrestin assay (Arrestin Reporter EDG2-bla U2OS), inhibition of LPA-stimulated signal
# Format: cell-based
# Settings: TangoEDG2-bla U2OS cells expressing human LPAR1; 0.25 μM LPA; read-out: Arrestin Reporter EDG2-bla U2OS Human Merged IC50
# Outline: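 TangoEDG2-bla U2OS cells (1×10^4/well, plated 18-20 h) were preincubated 1 h at 37 °C with compound (12-point, 3-fold, 10 μM to 0.00006 μM), then stimulated 3 h with 0.25 μM LPA final. LiveBLAzer FRET B/G 460/530 nm emission ratio gave % inhibition; IC50 from 4-parameter variable-slope fit.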
# T1 sequence (Q92633 whole entry): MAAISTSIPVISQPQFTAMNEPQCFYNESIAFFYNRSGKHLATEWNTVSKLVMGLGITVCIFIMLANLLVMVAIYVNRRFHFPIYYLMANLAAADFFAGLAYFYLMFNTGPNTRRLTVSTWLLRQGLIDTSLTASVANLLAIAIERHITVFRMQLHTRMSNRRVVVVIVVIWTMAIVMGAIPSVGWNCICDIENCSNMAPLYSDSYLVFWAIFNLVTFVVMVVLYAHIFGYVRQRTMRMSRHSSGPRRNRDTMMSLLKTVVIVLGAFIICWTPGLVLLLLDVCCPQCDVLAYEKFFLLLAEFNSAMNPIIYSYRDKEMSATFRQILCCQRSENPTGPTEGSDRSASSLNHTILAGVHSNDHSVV
row,IC50 [nM],SMILES
1,174,"CC(C)c1ccnn1C1(C(=O)Nc2ccc(Cl)cc2OC(F)F)CCN(Cc2c(C(=O)O)nnn2C)CC1 [Compound 179, 5-[[4-[[4-chloro-2-(difluoromethoxy)phenyl]carbamoyl]-4-(5-isopropylpyrazol-1-yl)-1-piperidyl]methyl]-1-methyl-triazole-4-carboxylic acid]"
2,48.8,"CC(C)c1ccnn1C1(C(=O)Nc2ccc(Cl)cc2OC(F)F)CCN(CC2(C(=O)O)C[C@@H](C)O[C@@H](C)C2)CC1 (stereo partly drawn) [Compound 180, (2R,6S)-4-[[4-[[4-chloro-2-(difluoromethoxy)phenyl]carbamoyl]-4-(5-isopropylpyrazol-1-yl)-1-piperidyl]methyl]-2,6-dimethyl-tetrahydropyran-4-carboxylic acid]"
3,87.7,"COC1(C(=O)O)CC(N2CCC(C(=O)Nc3ccc(Cl)cc3OC(F)F)(n3nccc3C(C)C)CC2)C1 (stereo not drawn) [Compound 181, 3-[4-[[4-chloro-2-(difluoromethoxy)phenyl]carbamoyl]-4-(5-isopropylpyrazol-1-yl)-1-piperidyl]-1-methoxy-cyclobutanecarboxylic acid]"
4,36.3,CC(C)c1ccnn1C1(C(=O)Nc2ccc(Cl)cc2OC(F)F)CCN(C[C@@H](CO)C(=O)O)CC1 [Compound 182]
5,39.4,"CC(C)c1ccnn1C1(C(=O)Nc2ccc(Cl)cc2OC(F)F)CCN(C[C@H](CO)C(=O)O)CC1 [Compound 183, (2R)-2-[[4-[[4-chloro-2-(difluoromethoxy)phenyl]carbamoyl]-4-(5-isopropylpyrazol-1-yl)-1-piperidyl]methyl]-3-hydroxy-propanoic acid]"
6,75.9,"CO[C@H]1CC[C@H]([C@@H](CN2CCC(C(=O)Nc3ccc(Cl)cc3OC(F)F)(n3nccc3C(C)C)CC2)C(=O)O)CC1 [Compound 187, (2S)-3-[4-[[4-chloro-2-(difluoromethoxy)phenyl]carbamoyl]-4-(5-isopropylpyrazol-1-yl)-1-piperidyl]-2-((1r,4S)-4-methoxycyclohexyl) propanoic acid]"
7,38.3,"COCCC(CN1CCC(C(=O)Nc2ccc(Cl)cc2OC(F)F)(n2ncc(F)c2C(C)C)CC1)C(=O)O (stereo not drawn) [Compound 188, 2-[[4-[[4-chloro-2-(difluoromethoxy)phenyl]carbamoyl]-4-(4-fluoro-5-isopropyl-pyrazol-1-yl)-1-piperidyl]methyl]-4-methoxy-butanoic acid]"
8,31.2,"Cc1cnn(CC(CN2CCC(C(=O)Nc3ccc(Cl)cc3OC(F)F)(n3nccc3C(C)C)CC2)C(=O)O)c1 (stereo not drawn) [Compound 189, 2-[[4-[[4-chloro-2-(difluoromethoxy)phenyl]carbamoyl]-4-(5-isopropylpyrazol-1-yl)-1-piperidyl]methyl]-3-(4-methylpyrazol-1-yl)propanoic acid]"
9,37.9,"COCC[C@@H](CN1CCC(C(=O)Nc2ccc(Cl)cc2OC(F)F)(n2ncc(F)c2C(C)C)CC1)C(=O)O [Compound 190, (2S)-2-[[4-[[4-chloro-2-(difluoromethoxy)phenyl]carbamoyl]-4-(4-fluoro-5-isopropyl-pyrazol-1-yl)-1-piperidyl]methyl]-4-methoxy-butanoic acid]"
10,33.4,"COCC[C@H](CN1CCC(C(=O)Nc2ccc(Cl)cc2OC(F)F)(n2ncc(F)c2C(C)C)CC1)C(=O)O [Compound 191, (2R)-2-[[4-[[4-chloro-2-(difluoromethoxy)phenyl]carbamoyl]-4-(4-fluoro-5-isopropyl-pyrazol-1-yl)-1-piperidyl]methyl]-4-methoxy-butanoic acid]"
11,31.3,"COc1cnn(CC(CN2CCC(C(=O)Nc3ccc(Cl)cc3OC(F)F)(n3nccc3C(C)C)CC2)C(=O)O)c1 (stereo not drawn) [Compound 193, 2-[[4-[[4-chloro-2-(difluoromethoxy)phenyl]carbamoyl]-4-(5-isopropylpyrazol-1-yl)-1-piperidyl]methyl]-3-(4-methoxypyrazol-1-yl)propanoic acid]"
12,67.6,"CC(C)c1ccnn1C1(C(=O)Nc2ccc(Cl)cc2OC(F)F)CCN(C[C@@H](C(=O)O)[C@H]2C[C@@H](C)O[C@@H](C)C2)CC1 [Compound 195, (25)-3-[4-[[4-chloro-2-(difluoromethoxy)phenyl]carbamoyl]-4-(5-isopropylpyrazol-1-yl)-1-piperidyl]-2-[(2R,4r,6S)-2,6-dimethyltetrahydropyran-4-yl]propanoic acid]"
13,34.7,"CC(C)c1ccnn1C1(C(=O)Nc2ccc(Cl)cc2OC(F)F)CCN(CC(C(=O)O)C2COCCOC2)CC1 (stereo not drawn) [Compound 196, 3-[4-[[4-chloro-2-(difluoromethoxy)phenyl]carbamoyl]-4-(5-isopropylpyrazol-1-yl)-1-piperidyl]-2-(1,4-dioxepan-6-yl)propanoic acid]"
14,40.4,"COC1(C(=O)O)CC(N2CCC(C(=O)Nc3ccc(Cl)cc3OC(F)F)(n3ncc(F)c3C(C)C)CC2)C1 (stereo not drawn) [Compound 199, 3-[4-[[4-chloro-2-(difluoromethoxy)phenyl]carbamoyl]-4-(4-fluoro-5-isopropyl-pyrazol-1-yl)-1-piperidyl]-1-methoxy-cyclobutanecarboxylic acid]"
15,37.7,"COC1CC(C(CN2CCC(C(=O)Nc3ccc(Cl)cc3OC(F)F)(n3nccc3C(C)C)CC2)C(=O)O)C1 (stereo not drawn) [Compound 200, 3-[4-[[4-chloro-2-(difluoromethoxy)phenyl]carbamoyl]-4-(5-isopropylpyrazol-1-yl)-1-piperidyl]-2-(3-methoxycyclobutyl) propanoic acid]"
16,30.6,"COc1cnn(C[C@@H](CN2CCC(C(=O)Nc3ccc(Cl)cc3OC(F)F)(n3nccc3C(C)C)CC2)C(=O)O)c1 [Compound 201, (2R)-2-[[4-[[4-chloro-2-(difluoromethoxy)phenyl]carbamoyl]-4-(5-isopropylpyrazol-1-yl)-1-piperidyl]methyl]-3-(4-methoxypyrazol-1-yl)propanoic acid]"
17,46,"COc1cnn(C[C@H](CN2CCC(C(=O)Nc3ccc(Cl)cc3OC(F)F)(n3nccc3C(C)C)CC2)C(=O)O)c1 [Compound 202, (2S)-2-[[4-[[4-chloro-2-(difluoromethoxy)phenyl]carbamoyl]-4-(5-isopropylpyrazol-1-yl)-1-piperidyl]methyl]-3-(4-methoxypyrazol-1-yl)propanoic acid]"
18,66.6,"CC(C)c1ccnn1C1(C(=O)Nc2ccc(Cl)cc2OC(F)F)CCN(CC(C(=O)O)C(C)O)CC1 (stereo not drawn) [Compound 203, 2-[[4-[[4-chloro-2-(difluoromethoxy)phenyl]carbamoyl]-4-(5-isopropylpyrazol-1-yl)-1-piperidyl]methyl]-3-hydroxy-butanoic acid]"
19,46.9,"CO[C@]1(C(=O)O)C[C@@H](N2CCC(C(=O)Nc3ccc(Cl)cc3OC(F)F)(n3ncc(F)c3C(C)C)CC2)C1 [Compound 204, (1r,3r)-3-[4-[[4-chloro-2-(difluoromethoxy)phenyl]carbamoyl]-4-(4-fluoro-5-isopropyl-pyrazol-1-yl)-1-piperidyl]-1-methoxy-cyclobutanecarboxylic acid]"
20,17.9,"COC[C@H](CN1CCC(C(=O)Nc2ccc(Cl)cc2OC(F)F)(n2ncc(Cl)c2C(C)C)CC1)C(=O)O [Compound 205, (2S)-2-[[4-[[4-chloro-2-(difluoromethoxy)phenyl]carbamoyl]-4-(4-chloro-5-isopropyl-pyrazol-1-yl)-1-piperidyl]methyl]-3-methoxy-propanoic acid]"
21,16.9,"COC[C@@H](CN1CCC(C(=O)Nc2ccc(Cl)cc2OC(F)F)(n2ncc(Cl)c2C(C)C)CC1)C(=O)O [Compound 206, (2R)-2-[[4-[[4-chloro-2-(difluoromethoxy)phenyl]carbamoyl]-4-(4-chloro-5-isopropyl-pyrazol-1-yl)-1-piperidyl]methyl]-3-methoxy-propanoic acid]"
22,93.7,"COCC[C@H](CN1CCC(C(=O)Nc2ccc(Cl)cc2OC(F)F)(n2ncc3c2C(C)(C)OC3)CC1)C(=O)O [Compound 207, (2R)-2-[[4-[[4-chloro-2-(difluoromethoxy)phenyl]carbamoyl]-4-(6,6-dimethyl-4H-furo[3,4-c]pyrazol-1-yl)-1-piperidyl]methyl]-4-methoxy-butanoic acid]"
23,94.4,"COC[C@H](CN1CCC(C(=O)Nc2ccc(Cl)cc2OC(F)F)(n2ncc3c2C(C)(C)OC3)CC1)C(=O)O [Compound 208, (2S)-2-[[4-[[4-chloro-2-(difluoromethoxy)phenyl]carbamoyl]-4-(6,6-dimethyl-4H-furo[3,4-c]pyrazol-1-yl)-1-piperidyl]methyl]-3-methoxy-propanoic acid]"
24,33.6,"CC(C)c1c(F)cnn1C1(C(=O)Nc2ccc(Cl)cc2OC(F)F)CCN(C[C@@H](CO)C(=O)O)CC1 [Compound 209, (2S)-2-[[4-[[4-chloro-2-(difluoromethoxy)phenyl]carbamoyl]-4-(4-fluoro-5-isopropyl-pyrazol-1-yl)-1-piperidyl]methyl]-3-hydroxy-propanoic acid]"
25,123,"COCC[C@@H](CN1CCC(C(=O)Nc2ccc(Cl)cc2OC(F)F)(n2ncc3c2C(C)(C)OC3)CC1)C(=O)O [Compound 210, (2S)-2-[[4-[[4-chloro-2-(difluoromethoxy)phenyl]carbamoyl]-4-(6,6-dimethyl-4H-furo[3,4-c]pyrazol-1-yl)-1-piperidyl]methyl]-4-methoxy-butanoic acid]"
26,87.3,"COC[C@@H](CN1CCC(C(=O)Nc2ccc(Cl)cc2OC(F)F)(n2ncc3c2C(C)(C)OC3)CC1)C(=O)O [Compound 211, (2R)-2-[[4-[[4-chloro-2-(difluoromethoxy)phenyl]carbamoyl]-4-(6,6-dimethyl-4H-furo[3,4-c]pyrazol-1-yl)-1-piperidyl]methyl]-3-methoxy-propanoic acid]"
27,46.3,"CC(C)c1c(F)cnn1C1(C(=O)Nc2ccc(Cl)cc2OC(F)F)CCN([C@H]2C[C@](C)(C(=O)O)C2)CC1 [Compound 212, (1r,3r)-3-[4-[[4-chloro-2-(difluoromethoxy)phenyl]carbamoyl]-4-(4-fluoro-5-isopropyl-pyrazol-1-yl)-1-piperidyl]-1-methyl-cyclobutanecarboxylic acid]"
